Assay results: ChEMBL document CHEMBL4765494, “A role of flavonoids in cytochrome c-cardiolipin interactions” (Bioorg Med Chem, 2021)

Experiments:
[1] = target: Cytochrome c (Homo sapiens) (UniProt P99999); assay: Inhibition of cytochrome c (unknown origin) assessed as reduction in cyt c-CL complex formation at 10 uM incubated for 15 mins in presence of cardiolipin by Trp-59 fluorescence assay relative to control
[2] = target: Cytochrome c (Homo sapiens) (UniProt P99999); assay: Inhibition of cytochrome c (unknown origin) assessed as reduction in cyt c-CL peroxidase activity at 10 uM up to 20 mins in presence of cardiolipin by Amplex red staining based fluorescence assay relative to control; conditions: time min <=20
[3] = target: Cytochrome c (Homo sapiens) (UniProt P99999); assay: Inhibition of cytochrome c (unknown origin) assessed as reduction reduction of cyt c from its ferric state to ferrous state at 10 uM incubated for 20 mins in presence of cardiolipin by UV-vis Spectrophotometric assay relative to control
[4] = Octanol-water distribution coefficient, log D of the compound at pH 7.4 after 1 hr by UV-VIS spectroscopic analysis; format: physicochemical
[5] = target: Cytochrome c (Homo sapiens) (UniProt P99999); assay: Inhibition of cytochrome c (unknown origin) assessed as reduction reduction of cyt c from its ferric state to ferrous state incubated for 20 mins in presence of cardiolipin by UV-vis Spectrophotometric assay
[6] = target: Cytochrome c (Homo sapiens) (UniProt P99999); assay: Inhibition of cytochrome c (unknown origin) assessed as pseudo first order rate constant
[7] = target: Cytochrome c (Homo sapiens) (UniProt P99999)
Description: Inhibition of cytochrome c (unknown origin) assessed as half-time reaction

Cytochrome c (Homo sapiens), sequence (P99999 whole entry): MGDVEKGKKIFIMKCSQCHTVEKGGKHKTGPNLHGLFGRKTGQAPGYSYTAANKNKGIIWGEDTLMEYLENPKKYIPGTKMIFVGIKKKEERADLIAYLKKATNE

## O=C1C[C@@H](c2ccccc2)Oc2ccccc21
[1]
  inhibition: 67%
[2]
  inhibition: 47%
[3]
  inhibition: 12%
[4]
  logD at 1 h: 2.95

## O=c1c(-c2ccc(O)cc2)coc2cc(O)ccc12
[2]
  inhibition: 43%
[3]
  inhibition: 5.8%

## O=c1cc(-c2ccccc2)oc2ccccc12
[1]
  inhibition: 87%
[2]
  inhibition: 50%
[3]
  inhibition: 0%

## O=C1c2c(O)cc(O)cc2O[C@H](c2ccc(O)c(O)c2)[C@H]1O [(+)-TAXIFOLIN]
[5]
  K: 1 M⁻¹ s⁻¹
[1]
  inhibition: 58%
[2]
  inhibition: 67%
[3]
  inhibition: 36%
[4]
  logD at 1 h: 0.67
[6]
  K: 0.067 min⁻¹

## O=c1cc(-c2ccccc2)oc2cc(O)c(O)c(O)c12 [BAICALEIN]
[1]
  inhibition: 91%
[2]
  inhibition: 71%
[3]
  inhibition: 79%
[4]
  logD at 1 h: 2.51

## COc1ccc(-c2coc3cc(O)cc(O)c3c2=O)cc1 [BIOCHANIN]
[1]
  inhibition: 37%
[2]
  inhibition: 32%
[3]
  inhibition: 23%
[4]
  logD at 1 h: 2.82

## Oc1cc(O)c2c(c1)O[C@H](c1ccc(O)c(O)c1)[C@@H](O)C2 [CIANIDANOL]
[5]
  K: 2 M⁻¹ s⁻¹
[2]
  inhibition: 90%
[3]
  inhibition: 61%
[4]
  logD at 1 h: 0.01
[6]
  K: 0.13 min⁻¹

## O=C(O[C@@H]1Cc2c(O)cc(O)cc2O[C@@H]1c1cc(O)c(O)c(O)c1)c1cc(O)c(O)c(O)c1 [EPIGALOCATECHIN GALLATE]
[7]
  T1/2: 1.3 min
[1]
  inhibition: 63%
[2]
  inhibition: 50%
[3]
  inhibition: 62%
[4]
  logD at 1 h: 0.04

## O=c1c(O)c(-c2ccc(O)c(O)c2)oc2cc(O)ccc12 [FISETIN]
[5]
  K: 220 M⁻¹ s⁻¹
[1]
  inhibition: 85%
[2]
  inhibition: 81%
[3]
  inhibition: 73%
[4]
  logD at 1 h: 2.29

## O=c1c(-c2ccc(O)cc2)coc2cc(O)cc(O)c12 [GENISTEIN]
[1]
  inhibition: 50%
[2]
  inhibition: 51%
[3]
  inhibition: 0%
[4]
  logD at 1 h: 2.68

## COc1ccc([C@@H]2CC(=O)c3c(O)cc(O)cc3O2)cc1O [HESPERETIN]
[5]
  K: 0.1 M⁻¹ s⁻¹
[1]
  inhibition: 71%
[2]
  inhibition: 57%
[3]
  inhibition: 7.8%
[4]
  logD at 1 h: 2.22

## O=c1c(O)c(-c2ccc(O)cc2)oc2cc(O)cc(O)c12 [KAEMPFEROL]
[7]
  T1/2: 1.2 min
[5]
  K: 92 M⁻¹ s⁻¹
[1]
  inhibition: 83%
[2]
  inhibition: 70%
[3]
  inhibition: 83%
[4]
  logD at 1 h: 3.39

## O=c1cc(-c2ccc(O)c(O)c2)oc2cc(O)cc(O)c12 [LUTEOLIN]
[7]
  T1/2: 11 min
[1]
  inhibition: 84%
[2]
  inhibition: 71%
[3]
  inhibition: 32%
[4]
  logD at 1 h: 2.7
[6]
  K: 0.033 min⁻¹

## O=c1c(O)c(-c2cc(O)c(O)c(O)c2)oc2cc(O)cc(O)c12 [MYRICETIN]
[7]
  T1/2: 0.08 min
[5]
  K: 1030 M⁻¹ s⁻¹
[1]
  inhibition: 91%
[2]
  inhibition: 81%
[3]
  inhibition: 90%
[4]
  logD at 1 h: 0.91

## O=C1C[C@@H](c2ccc(O)cc2)Oc2cc(O)cc(O)c21 [NARINGENIN]
[5]
  K: 0.002 M⁻¹ s⁻¹
[1]
  inhibition: 60%
[2]
  inhibition: 46%
[3]
  inhibition: 7.3%
[4]
  logD at 1 h: 2.35

## C[C@@H]1O[C@@H](O[C@H]2[C@H](Oc3cc(O)c4c(c3)O[C@H](c3ccc(O)cc3)CC4=O)O[C@H](CO)[C@@H](O)[C@@H]2O)[C@H](O)[C@H](O)[C@H]1O [NARINGIN]
[1]
  inhibition: 81%
[2]
  inhibition: 54%
[3]
  inhibition: 27%
[4]
  logD at 1 h: -0.87

## C[C@@H]1O[C@@H](OC[C@H]2O[C@@H](Oc3c(-c4ccc(O)c(O)c4)oc4cc(O)cc(O)c4c3=O)[C@H](O)[C@@H](O)[C@@H]2O)[C@H](O)[C@H](O)[C@H]1O [RUTIN]
[1]
  inhibition: 66%
[2]
  inhibition: 28%
[3]
  inhibition: 19%
[4]
  logD at 1 h: -0.67
